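These data come from cells grown in 96-well plates and exposed to compound for 48 hours at five concentrations. Abbreviation: GI50, concentration required for 50% inhibition of growth.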 Activity calls are given as the source filed them. No stated cut-off is given here; in the data, active = GI50 up to about 1.1 µM and inactive = higher.
What was measured:
Experiment in all cases: NCI-60 cell line screen, 48 h
[1] = system: 786-0
[2] = system: A498
[3] = system: ACHN
[4] = system: COLO 205
[5] = system: DU-145
[6] = system: KM12
[7] = system: LOX IMVI
[8] = system: MCF7
[9] = system: MDA-MB-231
[10] = system: MDA-MB-435
[11] = system: MDA-N
[12] = system: NCI-H226
[13] = system: NCI/ADR-RES
[14] = system: OVCAR-5
[15] = system: RXF 393
[16] = system: SF-268
[17] = system: SK-MEL-5
[18] = system: SR
[19] = system: U-251
[20] = system: SK-MEL-28

Compound	GI50 [1]	GI50 [2]	GI50 [3]	GI50 [4]	GI50 [5]	GI50 [6]	GI50 [7]	GI50 [8]	GI50 [9]	GI50 [10]	GI50 [11]	GI50 [12]	GI50 [13]	GI50 [14]	GI50 [15]	GI50 [16]	GI50 [17]	GI50 [18]	GI50 [19]	GI50 [20]
Cc1cc(S(=O)(=O)Nc2nnc3cnc4ccccc4n23)c(S)cc1Cl	> 100 µM (inactive)	> 100 µM (inactive)	6.73 µM (inactive)	> 100 µM (inactive)	> 100 µM (inactive)	> 83.6 µM (inactive)	> 100 µM (inactive)	> 100 µM (inactive)	> 100 µM (inactive)	> 100 µM (inactive)	> 100 µM (inactive)	> 94.6 µM (inactive)	> 100 µM (inactive)	> 100 µM (inactive)	> 100 µM (inactive)	98.6 µM (inactive)	> 41.7 µM (inactive)	> 100 µM (inactive)	> 74.1 µM (inactive)	–
COc1c2c3c4c(c(OC)c(=O)c5c(O)cc(OC)c(c6c(OC)cc(O)c(c1=O)c63)c54)C(C(C)O)C2C(C)=O (configuration not stated)	0.61 µM (active)	0.628 µM (active)	0.497 µM (active)	0.571 µM (active)	0.641 µM (active)	0.431 µM (active)	0.244 µM (active)	0.603 µM (active)	0.741 µM (active)	0.295 µM (active)	0.282 µM (active)	0.528 µM (active)	0.296 µM (active)	0.603 µM (active)	0.06 µM (active)	0.492 µM (active)	0.138 µM (active)	0.178 µM (active)	0.299 µM (active)	0.189 µM (active)
COc1ccc(C2=Nc3c(nc(SC)[nH]c3=O)NC(c3ccccc3)C2)cc1 (configuration not stated)	26.3 µM (inactive)	33.3 µM (inactive)	21.8 µM (inactive)	19.6 µM (inactive)	25.2 µM (inactive)	16.6 µM (inactive)	30.5 µM (inactive)	17.1 µM (inactive)	14.3 µM (inactive)	29.2 µM (inactive)	16.9 µM (inactive)	26.2 µM (inactive)	20 µM (inactive)	34.5 µM (inactive)	20.7 µM (inactive)	–	16.6 µM (inactive)	73.3 µM (inactive)	18.9 µM (inactive)	> 10 µM (inactive)
COC(=O)CCCc1nc2ccccc2nc1/N=N/c1ccccc1	38.1 µM (inactive)	> 100 µM (inactive)	74 µM (inactive)	3.71 µM (inactive)	48.3 µM (inactive)	37.1 µM (inactive)	16.6 µM (inactive)	30.8 µM (inactive)	> 100 µM (inactive)	58.7 µM (inactive)	48.2 µM (inactive)	43 µM (inactive)	18.7 µM (inactive)	> 100 µM (inactive)	62.5 µM (inactive)	51.2 µM (inactive)	61.1 µM (inactive)	20.8 µM (inactive)	53.6 µM (inactive)	38.5 µM (inactive)
CSc1ncc2c(C#N)c3[nH]c4ccccc4n3c(=O)c2n1	31.7 µM (inactive)	9.84 µM (inactive)	33.1 µM (inactive)	17 µM (inactive)	28.8 µM (inactive)	8.63 µM (inactive)	21.7 µM (inactive)	19.7 µM (inactive)	26.6 µM (inactive)	16.9 µM (inactive)	24.3 µM (inactive)	34.1 µM (inactive)	4.89 µM (inactive)	55.1 µM (inactive)	7.53 µM (inactive)	28 µM (inactive)	10.6 µM (inactive)	9.89 µM (inactive)	15.8 µM (inactive)	–
CC(=O)c1[nH]c(NCc2ccccc2)c(C(=S)Nc2ccccc2)c1N	17.3 µM (inactive)	17.9 µM (inactive)	29 µM (inactive)	28.4 µM (inactive)	28.8 µM (inactive)	17.9 µM (inactive)	17.4 µM (inactive)	19.3 µM (inactive)	15.1 µM (inactive)	18.2 µM (inactive)	18.7 µM (inactive)	18.2 µM (inactive)	30.6 µM (inactive)	24.3 µM (inactive)	18.9 µM (inactive)	21.5 µM (inactive)	17.1 µM (inactive)	28.7 µM (inactive)	17.3 µM (inactive)	24.2 µM (inactive)
COC(=O)C1=C(C)NC(C)=C(C(=O)OC)C1c1cccc(N=O)c1	16.7 µM (inactive)	35 µM (inactive)	14.5 µM (inactive)	18.5 µM (inactive)	15.8 µM (inactive)	16.6 µM (inactive)	17.4 µM (inactive)	18.4 µM (inactive)	14.4 µM (inactive)	16.1 µM (inactive)	13.3 µM (inactive)	16.3 µM (inactive)	22.5 µM (inactive)	18 µM (inactive)	13.3 µM (inactive)	17 µM (inactive)	16.3 µM (inactive)	5.41 µM (inactive)	17 µM (inactive)	16.7 µM (inactive)

Reference: ChEMBL document CHEMBL1201862, “PubChem BioAssay data set” (2004)
